Data taken from US4496572A, “Benzo-fused thromboxane synthetase inhibitors” (Pfizer Inc., priority 1981, dated 1985).

What was measured:
[1] = rabbit, intravenous arachidonic acid; cited from earlier work
[2] = tested on: human blood platelet aggregation; settings: human blood platelets; cited from earlier work
TxB2 production = experiment: TxB2 generation in clotted whole blood after i.v. dosing (method of Patrono et al, RIA); assay type: in vivo, rabbits; settings: Oryctolagus cuniculus, iv; for inhibition at 0.3 mg/kg: 0.3 mg/kg i.v.; for inhibition at 0.1 mg/kg: 0.1 mg/kg i.v.
Procedure: The method of Patrono et al is adapted to study the generation of TxB2 is whole blood samples removed from animals prior to and following drug treatment. Briefly, blood samples are taken into glass tubes and allowed to clot at 37° C. Serum is separated by centrifugation and the samples stored at -40° C. until assayed for TxB2, when appropriate dilutions of ethanol deproteinised samples are analysed by RIA. This technique is used in experiments with the test compounds to determine intravenous potency in anaesthetised rabbits:
Male New Zealand white rabbits (2.6-5.6 kg) are anaesthetised with sodium pentobarbitone (30 mg/kg i.v.) followed by urethane (500 mg/kg i.p.). After cannulation of the trachea, a carotid artery is catheterised for collection of blood samples. The catheter is kept patent by slow infusion (0.2 ml/minute) of sterile saline. Control carotid arterial blood samples are taken 30 and 5 minutes prior to administration of the test compound or vehicle (0.9% w/v NaCl, 0.2 ml/kg) via a marginal ear vein. Three groups of rabbits are used. The first group receive 0.03 mg/kg of the test compound followed, one hour later, by 0.1 mg/kg. Similarly, the second group receive 0.3 mg/kg, followed by 1 mg/kg. The third group receive vehicle, followed one hour later by a further vehicle injection. […] At each time point, a 1 ml blood sample is taken into a glass test tube, without anticoagulant, for TxB2 determination. For the latter, the blood sample is allowed to clot during a two hour incubation at 37° C. (which preliminary experiments had shown to give maximum TxB2 production) and the serum obtained by centrifugation. Serum samples are then processed through the TxB2 RIA after deproteinisation with ethanol and dilution with Isogel Tris buffer.

aggregation of platelets = settings: rats in vivo; cited from earlier work
prostacyclin synthetase = settings: pre-incubation of the enzyme with the inhibitor; cited from earlier work

Molecule | protection from the lethal effect of arachidonic acid injection [1] | inhibitory activity in vitro against a variety of aggregating agents [2] | inhibition at 0.3 mg/kg (TxB2 production; 2 min, 2 MIN post dose) [%] | inhibition at 0.1 mg/kg (TxB2 production; 0.25 h, 15 MIN post dose) [%] | inhibition at 0.3 mg/kg (TxB2 production; 0.25 h, 15 MIN post dose) [%] | inhibition at 0.1 mg/kg (TxB2 production; 0.5 h, 30 MIN post dose) [%] | inhibition at 0.3 mg/kg (TxB2 production; 0.75 h, 45 MIN post dose) [%] | inhibition at 0.3 mg/kg (TxB2 production; 1.25 h, 75 MIN post dose) [%] | prevention of platelet aggregation in extra corporeal loop of the abdominal aorta (aggregation of platelets) | inhibition of PGI2 production (prostacyclin synthetase) | inhibition at 0.3 mg/kg (TxB2 production; 0.5 h, 30 MIN post dose) [%] | inhibition at 0.1 mg/kg (TxB2 production; 2 min, 2 MIN post dose) [%] | inhibition at 0.1 mg/kg (TxB2 production; 0.75 h, 45 MIN post dose) [%] | inhibition at 0.1 mg/kg (TxB2 production; 1.25 h, 75 MIN post dose) [%]
CC(=O)Oc1ccccc1C(=O)O [aspirin] | protect the rabbit from the lethal effect | show inhibitory activity | – | – | – | – | – | – | – | – | – | – | – | –
CSc1c(Cn2ccnc2)sc2ccc(C(=O)O)cc12 | – | – | 99 | 93 | 98 | 95 | 97 | 95 | – | – | – | – | – | –
O=C(O)c1ccc2sc(Cn3ccnc3)c(Cl)c2c1 | – | – | 99 | 99 | 100 | 96 | 100 | 99 | – | – | – | – | – | –
Cc1c(Sc2cccnc2)sc2ccc(C(=O)O)cc12 | – | – | 98 | 29 | 81 | 22 | 36 | 33 | – | – | – | – | – | –
O=C(O)c1ccc2oc(Cn3ccnc3)c(Br)c2c1 | – | – | 87 | 52 | 84 | 33 | 65 | 41 | – | – | – | – | – | –
O=C1C(CC[S+]([O-])c2ccccc2)C(=O)N(c2ccccc2)N1c1ccccc1 (centres unmarked) [sulphinpyrazone] | protect the rabbit from the lethal effect | show inhibitory activity | – | – | – | – | – | – | prevent the aggregation of platelets | – | – | – | – | –
Cc1c(Cc2cccnc2)ccc2ccc(C(=O)O)cc12 | – | – | 99 | 95 | 98 | 92 | 95 | 97 | – | – | – | – | – | –
Cc1c(Cn2ccnc2)sc2cc(C(=O)O)ccc12 | – | – | 100 | 100 | 100 | 100 | 100 | 100 | – | – | – | – | – | –
Cc1c(Cn2ccnc2)n(C)c2ccc(C(=O)O)cc12 | – | – | 99 | 85 | 95 | 84 | 93 | 81 | – | – | – | – | – | –
15-hydroperoxyarachidonic acid | – | – | – | – | – | – | – | – | – | completely inhibited | – | – | – | –
O=C(O)c1ccc2sc(Cn3ccnc3)cc2c1 | – | – | – | – | 96 | – | – | – | – | – | 89 | – | – | –
Cc1c(Cn2ccnc2)oc2ccc(C(=O)O)cc12 | – | – | 92 | 47 | 83 | 37 | 65 | 51 | – | – | – | – | – | –
O=C(O)c1ccc2oc(Cn3ccnc3)c(Cl)c2c1 | – | – | 98 | 88 | 97 | 82 | 93 | 86 | – | – | – | – | – | –
Cc1c(Cn2ccnc2)sc2ccc(C(=O)O)cc12 | – | – | – | 98 | 94 | – | – | – | – | – | 95 | 100 | 100 | 98
Cc1c(Cc2cccnc2)sc2ccc(C(=O)O)cc12 | – | – | 98 | 96 | 99 | 85 | 97 | 83 | – | – | – | – | – | –
Cc1c(Cc2cccnc2)sc2cc(C(=O)O)ccc12 | – | – | 90 | 76 | 91 | 46 | 71 | 52 | – | – | – | – | – | –
